≈ marks a conversion by molar mass, not a printed value. Like-named read-outs stand apart in the source and are kept apart here.
Tests used:
[1] = tested on: Pseudomonas aeruginosa and MRPA strains; test: microbe, parasite or virus in culture; type: cell-based; settings: Pseudomonas aeruginosa, broth micro-dilution, 37 °C, 18–24 h
From the text: Gram-negative (Pseudomonas aeruginosa ATCC 27853) bacterial strains were obtained from the ATCC (American Type Culture Collection; Manassas, VA, USA). Multidrug-resistant strains (Pseudomonas aeruginosa 138, 431, 434, 557, 559, 778, 1034, 1162, 3290, 3399, 3592, 3904, 4007, 4319, 4891, 5018, and 671973) were obtained from the Chonnam National University Hospital (Gwangju, South Korea).
We examined the activity of each peptide against both pseudomonas aeruginosa and multidrug-resistant strains. The minimal inhibitory concentrations (MICs) of peptides were determined using the broth micro-dilution assay as described previously. Briefly, bacterial strains were cultivated with shaking overnight at 37 °C. The next day, they were diluted to a density of 2 × 10^5 CFU/mL with growth medium. Peptides were serially diluted with 10 mM sodium phosphate buffer. 50 µL bacterial aliquots were mixed with an equal volume of peptide solution, and incubated at 37 °C for 18–24 h. Inhibition of bacterial growth was determined by measuring the absorbance at 600 nm using a Versa Max microplate reader (Molecular Devices, Sunnyvale, CA, USA). The test was performed in triplicate.

[2] = tested on: P. aeruginosa strains (biofilm formation); type: cell-based, Pseudomonas aeruginosa; settings: 24 h, 37 °C, crystal violet OD595
Description: To evaluate the ability of bacterial strains to form biofilms either in the absence or presence of peptides, antibiotic-susceptible P. aeruginosa (ATCC 27853), and various strains of MDR P. aeruginosa were cultured in nutrient broth (NB). […]. The biofilms were fixed with 100% methanol for 15 min, stained with 0.1% crystal violet (CV) for 1 h, and rinsed three times with distilled water (dH2O). After the addition of 95% ethanol, biofilm mass was quantified by measuring OD at 595 nm using a Versa-Max microplate ELISA reader (Molecular Devices). Results were expressed as the percentage of biofilm formed with respect to the control. […] All experiments were performed at least in triplicate.

[3] = tested on: P. aeruginosa 1034 biofilm; test: LIVE/DEAD BacLight (SYTO9/PI) staining of biofilms; type: cell-based, Pseudomonas aeruginosa; settings: even at 400 µM; P. aeruginosa 1034, 24 h, 37 °C
Description: Visualization of the remaining bacteria in the biofilm was achieved using the LIVE/DEAD BacLight Bacterial Viability Kit (Molecular Probes, Eugene, OR, USA), and an IX71 inverted fluorescence microscope (Olympus, Tokyo, Japan) was used for observation[58],[59]. Briefly, bacterial suspensions (5 × 10^5 CFU/mL) were incubated with 0.5× MBIC or 1× MBIC of the peptides, for 24 h at 37 °C. Following incubation, biofilms were stained with pre-mixed dye (SYTO-9 and propidium iodide) for 30 min in the dark; images were obtained using the aforementioned microscope.

P. aeruginosa 1034 = type: in vivo; settings: BALB/c mice, intradermal P. aeruginosa 1034
Description: BALB/c mice (6 weeks old) were used in this study. The mice were shaved and intradermally injected with 20 µl of P. aeruginosa (1 × 10^8 CFU/ml) in PBS.

How did the MIC ([1]; ATCC27853, P. aeruginosa ATCC 27853, 2 × 10^5 CFU/mL, A600, triplicate) turn out when `O=C(O)c1cn(C2CC2)c2cc(N3CCNCC3)c(F)cc2c1=O` [Ciprofloxacin, ciprofloxacin, reference compound] was run?
Its MIC is 1.56 µM (≈ 0.517 µg/mL).

And the MIC ([1]; P. aeruginosa 138 (multidrug-resistant), triplicate)?
Its MIC is > 400 µM.

And the MIC ([1]; P. aeruginosa 431 (multidrug-resistant), triplicate)?
Its MIC is > 400 µM.

What about the MIC ([1]; P. aeruginosa 434 (multidrug-resistant), triplicate) of the same molecule?
The MIC was > 400 µM.

What about the MIC ([1]; P. aeruginosa 557 (multidrug-resistant), triplicate) of the same molecule?
Its MIC is > 400 µM.

And the MIC ([1]; P. aeruginosa 559 (multidrug-resistant), triplicate)?
Its MIC is > 400 µM.

What about the MIC ([1]; P. aeruginosa 778 (multidrug-resistant), triplicate) of the same molecule?
Its MIC is > 400 µM.

What about the MIC ([1]; P. aeruginosa 1034 (multidrug-resistant), triplicate) of the same molecule?
The MIC was > 400 µM.

What about the MIC ([1]; P. aeruginosa 1162 (multidrug-resistant), triplicate) of the same molecule?
Its MIC is > 400 µM.

And the MIC ([1]; P. aeruginosa 3290 (multidrug-resistant), triplicate)?
Its MIC is > 400 µM.

What about the MIC ([1]; P. aeruginosa 3399 (multidrug-resistant), triplicate) of the same molecule?
The MIC was > 400 µM.

What about the MIC ([1]; P. aeruginosa 3543 (multidrug-resistant), triplicate) of the same molecule?
Its MIC is 400 µM (≈ 133 µg/mL).

And the MIC ([1]; P. aeruginosa 3592 (multidrug-resistant), triplicate)?
The MIC was > 400 µM.

What about the MIC ([1]; P. aeruginosa 3904 (multidrug-resistant), triplicate) of the same molecule?
Its MIC is 400 µM (≈ 133 µg/mL).

And the MIC ([1]; P. aeruginosa 4007 (multidrug-resistant), triplicate)?
The MIC was > 400 µM.

What about the MIC ([1]; P. aeruginosa 4319 (multidrug-resistant), triplicate) of the same molecule?
Its MIC is > 400 µM.

And the MIC ([1]; P. aeruginosa 4891 (multidrug-resistant), triplicate)?
Its MIC is > 400 µM.

What about the MIC ([1]; P. aeruginosa 5018 (multidrug-resistant), triplicate) of the same molecule?
The MIC was > 400 µM.

And the MIC ([1]; P. aeruginosa 671973 (multidrug-resistant), triplicate)?
The MIC was 100 µM (≈ 33.1 µg/mL).

And the MBIC ([2]; P. aeruginosa 434)?
The MBIC was >400 µM.

And the MBIC ([2]; P. aeruginosa 559)?
Its MBIC is >400 µM.

And the MBIC ([2]; P. aeruginosa 778)?
Its MBIC is >400 µM.

And the MBIC ([2]; P. aeruginosa 1034)?
Its MBIC is >400 µM.

And the MBIC ([2]; P. aeruginosa 1162)?
The MBIC was >400 µM.

What about the MBIC ([2]; P. aeruginosa 3399) of the same molecule?
Its MBIC is >400 µM.

What about the MBIC ([2]; P. aeruginosa 3543) of the same molecule?
The MBIC was >400 µM.

What about the MBIC ([2]; P. aeruginosa 4007) of the same molecule?
The MBIC was >400 µM.

What about the “biofilm formation by the MRPA strain (live/dead staining)” value [3] of the same molecule?
Its value is “did not inhibit biofilm formation”.

And the “killing of bacteria in infected skin” value (P. aeruginosa 1034; day 7)?
Its value is “did not kill the bacteria”.

And the “decrease in number of colonies” value (P. aeruginosa 1034; until 4 days)?
The value was “about 60%”.

— article PMC5789083, “Mechanisms driving the antibacterial and antibiofilm properties of Hp1404 and its analogue peptides against multidrug-resistant Pseudomonas aeruginosa” (Scientific Reports, 2018)
